# Values of other authors in patent publication US20250345356A1, “TIRAPAZAMINE COMPOSITIONS AND METHODS” (priority 2024, published 2025).
# Several values for one entry are separate records, joined by “and”; a condition that tells them apart may be missing. Identical values can stand only once.
# Tests used:
# [1] = cited from earlier work
# [2] = cited from earlier work; remark: listed apart in the source
# [3] = system: HCC; settings: cited from earlier work
smiles,measurement,setting,value
"Nc1n[n+]([O-])c2ccccc2[n+]1[O-] [tirapazamine, 3-amino-1,2,4-benotriazine-1,4-di-N-oxide]",tumor responses,[1]; 36-450 mg/m^2 i.v.,no tumor responses were seen
same,AUC of tirapazamine at which ototoxicity was not observed,"[1]; human, in vivo, 330 mg/m2",≤ 1252 µg·min/mL
same,Maximally Tolerated Dose (MTD),"[1]; human, in vivo, iv",390 mg/m^2
same,dose-limiting toxicities,"[1]; human, in vivo, iv",reversible deafness and tinnitus
same,duration of cramps,"[1]; human, in vivo, iv",1 to 14 days
same,mean Vdss,"[1]; human, in vivo, iv",39 ± 12.5 L
same,mean clearance (±SD),"[1]; human, in vivo, iv",624.2 ± 157 mL/min
same,onset of muscle cramps after the start of infusion,"[1]; human, in vivo, iv",2.4 to 24 h
same,increase in AUC(0-inf),"[1]; human, in vivo",~19 fold
same,necrosis of the left lobe of the liver (histopathology),"[2]; 3 mg/kg and 6 mg/kg i.v. with transient left HAL, Day 1",1%
same,survival after 1 and 7 days,[2]; 3 mg/kg or 6 mg/kg with left HAL,survived
same,serum alanine transaminase (ALT) level,"[2]; Day 1, dose-dependent",elevated on Day 1
same,potentially safe doses combined with transient left HAL,[2]; i.v. infusion,≤ 6 mg/kg
same,necrosis in the HCC within the territory of HAL,"[3]; Day 1 post-treatment, tirapazamine 3 mg/kg, doxorubicin 10 mg/kg, transient left HAL",more than 99%
same,necrosis of HCCs in the territory of the left HAL,"[3]; Day 7, 3 mg/kg with left HAL, H&E",90-99%
same,"tumor necrosis, individual mice","[3]; Day 7, three mice, 3 mg/kg with left HAL, 3 mg/kg",90% and 99% (2×)
same,necrosis in the tumor-free part of the left lobe of the liver,"[3]; Day 7, with left HAL",no evidence of necrosis
